# Key:
# [1] = system: T1, UGT enzymes of human liver microsomes; experiment: Inhibition of 2ME2 glucuronidation (MG1, MG2) in human liver microsomes; assay type: biochemical; conditions: liver 062101, 2ME2 50 μM
# T1 construct: other: liver 062101
# Description: (§1) Compounds were eluted using a binary solvent gradient system where solvent A was dilute phosphoric acid (pH 3) and solvent B was 80:20 acetonitrile-methanol. […] Detection was at 280 nm.
# [2] = system: T2, UGT enzymes of human liver microsomes; experiment: Kinetic and Ki studies of inhibitors of 7-HFC glucuronidation in human liver microsomes; assay type: biochemical; conditions: 7-HFC 20-500 μM
# T2 construct: percentage of control metabolism, 7-HFC glucuronidation; percentage of control metabolism, 7-HFC glucuronidation
# [3] = system: UGT enzymes of pooled human jejunum microsomes; experiment: Inhibition of 2ME2 glucuronidation (MG1) in pooled human jejunum microsomes; assay type: biochemical; conditions: jejunum HJ61, 2ME2 50 μM
# Description: as §1
# [4] = biological target: T3, UGT1A9 (Homo sapiens, UniProt O60656); experiment: in vitro; conditions: pH 7.5, % of control metabolism
# T3 sequence (O60656 26-530): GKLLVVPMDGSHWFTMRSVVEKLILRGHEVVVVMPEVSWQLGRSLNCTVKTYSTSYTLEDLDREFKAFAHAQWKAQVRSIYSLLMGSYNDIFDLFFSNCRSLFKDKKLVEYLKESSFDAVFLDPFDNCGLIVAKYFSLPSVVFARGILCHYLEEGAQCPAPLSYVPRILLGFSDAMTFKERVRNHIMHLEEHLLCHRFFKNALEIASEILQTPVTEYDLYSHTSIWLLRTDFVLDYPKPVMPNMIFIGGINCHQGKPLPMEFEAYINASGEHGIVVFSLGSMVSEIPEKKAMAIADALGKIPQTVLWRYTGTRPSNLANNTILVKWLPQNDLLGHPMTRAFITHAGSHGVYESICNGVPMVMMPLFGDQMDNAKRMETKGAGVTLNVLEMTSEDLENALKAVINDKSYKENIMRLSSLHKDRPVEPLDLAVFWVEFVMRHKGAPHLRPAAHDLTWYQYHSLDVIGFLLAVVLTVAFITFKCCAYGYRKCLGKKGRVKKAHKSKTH
# Description: (§2) Compounds were eluted using a binary solvent gradient system. Solvent A was water brought to pH 8 with NH4OH. Solvent B was methanol. Solvent flow rate was 1 ml/min and the column temperature was maintained at 50° C. Detection was at 280 nm. […] The system was then returned to the initial conditions and equilibrated for 3 min.
# [5] = biological target: T4, UGT1A1 (Homo sapiens, UniProt P22309); experiment: Inhibition of raloxifene glucuronidation by recombinant UGT1A1 Supersomes; conditions: UGT1A1
# T4 sequence (P22309 26-533): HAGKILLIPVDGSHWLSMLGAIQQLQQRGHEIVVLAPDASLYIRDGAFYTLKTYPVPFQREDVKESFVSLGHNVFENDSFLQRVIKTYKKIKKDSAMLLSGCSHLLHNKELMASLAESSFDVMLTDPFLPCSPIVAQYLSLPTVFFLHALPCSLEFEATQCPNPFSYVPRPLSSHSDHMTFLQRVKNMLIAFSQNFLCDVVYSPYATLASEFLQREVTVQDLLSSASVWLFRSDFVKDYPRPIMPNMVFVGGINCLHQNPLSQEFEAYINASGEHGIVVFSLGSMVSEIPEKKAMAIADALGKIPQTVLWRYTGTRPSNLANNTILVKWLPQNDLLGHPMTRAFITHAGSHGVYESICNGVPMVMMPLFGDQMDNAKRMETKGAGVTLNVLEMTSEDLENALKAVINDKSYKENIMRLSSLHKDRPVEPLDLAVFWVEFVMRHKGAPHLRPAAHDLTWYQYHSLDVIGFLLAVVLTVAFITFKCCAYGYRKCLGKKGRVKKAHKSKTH
# Description: as §2
# [6] = biological target: T4, UGT1A1; experiment: in vitro
# Description: as §2
# [7] = biological target: T5, UGT1A10 (Homo sapiens, UniProt Q9HAW8); experiment: in vitro; conditions: pH 7.5, % of control metabolism
# T5 sequence (Q9HAW8 26-530): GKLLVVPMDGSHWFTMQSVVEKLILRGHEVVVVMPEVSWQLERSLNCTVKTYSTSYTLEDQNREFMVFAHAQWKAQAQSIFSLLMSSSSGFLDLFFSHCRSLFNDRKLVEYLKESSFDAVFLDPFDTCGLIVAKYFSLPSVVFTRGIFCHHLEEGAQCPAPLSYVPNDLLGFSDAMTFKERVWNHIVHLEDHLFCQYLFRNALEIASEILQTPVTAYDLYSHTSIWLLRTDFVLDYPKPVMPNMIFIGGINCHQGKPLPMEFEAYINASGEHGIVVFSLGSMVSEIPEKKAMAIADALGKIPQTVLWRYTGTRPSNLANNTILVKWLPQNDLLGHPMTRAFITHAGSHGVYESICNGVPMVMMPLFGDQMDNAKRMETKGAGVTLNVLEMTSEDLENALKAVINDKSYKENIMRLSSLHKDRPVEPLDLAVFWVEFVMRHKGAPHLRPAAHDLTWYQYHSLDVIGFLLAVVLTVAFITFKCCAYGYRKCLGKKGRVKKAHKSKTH
# Description: as §2
# [8] = biological target: T5, UGT1A10; experiment: Inhibition of raloxifene glucuronidation by recombinant UGT1A10 Bacculosomes
# Description: as §2
# [9] = system: UGT enzymes of pooled human jejunum microsomes; experiment: Inhibition of zidovudine glucuronidation in pooled human jejunum microsomes; assay type: biochemical; conditions: inhibitor 200 μM
# Description: Increasing the microsomal protein concentration to 1 mg/ml and extending the incubation time to 60 min provided meaningful metabolite levels for inhibition studies.
# [10] = system: UGT enzymes of human liver microsomes; experiment: Inhibition of raloxifene glucuronidation (G1, G2) in human liver microsomes; assay type: biochemical; conditions: raloxifene 50 μM; for % of control metabolism (SD, n = 3), raloxifene glucuronide G1 / % of control metabolism (SD, n = 3), raloxifene glucuronide G2: human liver microsomes 250 μg/ml, 15 min
# Description: Compounds were eluted using a binary solvent gradient system. […] Solvent B was methanol. […] Detection was at 280 nm.
# [11] = biological target: T6, UGT1A3 (Homo sapiens, UniProt P35503); experiment: in vitro
# T6 sequence (P35503 29-534): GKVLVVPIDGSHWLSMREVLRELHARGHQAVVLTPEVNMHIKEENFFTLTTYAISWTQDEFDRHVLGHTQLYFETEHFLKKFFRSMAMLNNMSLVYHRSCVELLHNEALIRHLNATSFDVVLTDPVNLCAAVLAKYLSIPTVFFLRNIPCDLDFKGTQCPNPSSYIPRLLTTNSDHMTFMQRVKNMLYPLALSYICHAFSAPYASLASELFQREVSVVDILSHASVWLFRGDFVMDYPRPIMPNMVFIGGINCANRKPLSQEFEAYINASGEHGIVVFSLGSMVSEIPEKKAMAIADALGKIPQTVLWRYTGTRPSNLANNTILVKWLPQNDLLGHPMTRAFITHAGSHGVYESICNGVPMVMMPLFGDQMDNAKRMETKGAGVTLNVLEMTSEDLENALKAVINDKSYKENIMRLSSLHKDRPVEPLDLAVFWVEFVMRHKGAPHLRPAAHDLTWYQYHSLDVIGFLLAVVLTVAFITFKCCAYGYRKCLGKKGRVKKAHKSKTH
# Description: as §2
# [12] = system: T2, UGT enzymes of human liver microsomes; experiment: Inhibition of 7-HFC glucuronidation in human liver microsomes; assay type: biochemical; conditions: inhibitor 500 μM; 7-HFC 50 μM, human liver microsomes 100 μg/ml, 15 min
# [13] = cited from earlier work
# [14] = pH 7.5, % of control metabolism, raloxifene G1
# [15] = pH 7.5, % of control metabolism, raloxifene G2
compound,measurement,setting,value
"O=C(O)Cc1ccccc1Nc1c(Cl)cccc1Cl [Diclofenac, reference compound]","residual metabolism (% of control), 2ME2 MG1",[1]; inhibitor 50 μM,70 (1) %
same,"residual metabolism (% of control), 2ME2 MG2",[1]; inhibitor 50 μM,60 (1) %
same,"residual metabolism (% of control), 2ME2 MG1",[1]; inhibitor 100 μM,54 (1) %
same,"residual metabolism (% of control), 2ME2 MG2",[1]; inhibitor 100 μM,44 (3) %
same,Vmax of 7-HFC glucuronidation (fit of the experiment with this inhibitor),[2],64 ± 4 nmol/min/mg
same,Km,[2]; read-out: Km of 7-HFC glucuronidation (fit of the experiment with this inhibitor),87 ± 7 µM
same,"residual metabolism (% of control), 2ME2 MG1",[3]; inhibitor 50 μM,100 (3) %
same,"residual metabolism (% of control), 2ME2 MG1",[3]; inhibitor 100 μM,97 (4) %
same,"activity at 15 min, 50 µM",[4]; raloxifene G1,74%
same,"activity at 15 min, 50 µM",[4]; raloxifene G2,77%
same,"inhibition of raloxifene glucuronidation, in words",[5],poor inhibitors
same,"activity at 15 min, 50 µM",[6]; [14],66%
same,"activity at 15 min, 50 µM",[6]; [15],73%
same,"activity at 15 min, 50 µM","[6]; pH 7.5, Inhibition of raloxifene glucuronidation, G1, UGT1A1",66%
same,"activity at 15 min, 50 µM","[6]; pH 7.5, Inhibition of raloxifene glucuronidation, G2, UGT1A1",73%
same,"activity at 15 min, 50 µM",[7]; raloxifene G1,97%
same,"activity at 15 min, 50 µM",[7]; raloxifene G2,93%
same,"inhibition of raloxifene glucuronidation, in words",[8],poor inhibitors
same,"residual metabolism (percentage of control), zidovudine",[9],18 (2) %
same,"% of control metabolism (SD, n = 3), raloxifene glucuronide G1",[10]; inhibitor 50 μM,65 (1) %
same,"% of control metabolism (SD, n = 3), raloxifene glucuronide G1",[10]; inhibitor 100 μM,50 (3) %
same,"% of control metabolism (SD, n = 3), raloxifene glucuronide G1",[10]; inhibitor 500 μM,6 (1) %
same,"% of control metabolism (SD, n = 3), raloxifene glucuronide G2",[10]; inhibitor 50 μM,67 (1) %
same,"% of control metabolism (SD, n = 3), raloxifene glucuronide G2",[10]; inhibitor 100 μM,53 (3) %
same,"% of control metabolism (SD, n = 3), raloxifene glucuronide G2",[10]; inhibitor 500 μM,6 (1) %
same,"% of control metabolism, raloxifene G1",[10]; inhibitor 50 μM,65 (1) %
same,"% of control metabolism, raloxifene G2",[10]; inhibitor 50 μM,67 (1) %
same,"% of control metabolism, raloxifene G1",[10]; inhibitor 100 μM,50 (3) %
same,"% of control metabolism, raloxifene G2",[10]; inhibitor 100 μM,53 (3) %
same,"activity at 15 min, 50 µM",[11]; [14],74%
same,"activity at 15 min, 50 µM",[11]; [15],75%
same,"activity at 15 min, 50 µM","[11]; pH 7.5, Inhibition of raloxifene glucuronidation, G1, UGT1A3",74%
same,"activity at 15 min, 50 µM","[11]; pH 7.5, Inhibition of raloxifene glucuronidation, G2, UGT1A3",75%
"CCCN(CCC)S(=O)(=O)c1ccc(C(=O)O)cc1 [Probenecid, reference compound]","% of control metabolism (SD, n = 3), 7-HFC glucuronidation",[12],91 (1) %
same,increase in zidovudine levels on co-administration,[13]; AIDS patients and healthy volunteers,2 fold
same,reduction in diflunisal metabolism to acyl- and phenol-glucuronides,[13]; coadministration with diflunisal,50%
same,"% of control metabolism (SD, n = 3), raloxifene glucuronide G1",[10]; inhibitor 500 μM,70 (4) %
same,"% of control metabolism (SD, n = 3), raloxifene glucuronide G2",[10]; inhibitor 500 μM,70 (1) %
